Measurements as given in ChEMBL document CHEMBL3526000 (Drug Metab Dispos, 2012).

How the values were obtained:
[1] = target: T1, UDP-glucuronosyltransferase 1A1 (Homo sapiens, UniProt P22309); assay: Drug metabolism assessed as recombinant human UGT1A1 assessed as O-glucuronidation at 100 uM incubated for 60 mins by LC-MS/MS analysis; assay type: ADME; conditions: recombinant enzyme, 1 h
T1 sequence (P22309 whole entry): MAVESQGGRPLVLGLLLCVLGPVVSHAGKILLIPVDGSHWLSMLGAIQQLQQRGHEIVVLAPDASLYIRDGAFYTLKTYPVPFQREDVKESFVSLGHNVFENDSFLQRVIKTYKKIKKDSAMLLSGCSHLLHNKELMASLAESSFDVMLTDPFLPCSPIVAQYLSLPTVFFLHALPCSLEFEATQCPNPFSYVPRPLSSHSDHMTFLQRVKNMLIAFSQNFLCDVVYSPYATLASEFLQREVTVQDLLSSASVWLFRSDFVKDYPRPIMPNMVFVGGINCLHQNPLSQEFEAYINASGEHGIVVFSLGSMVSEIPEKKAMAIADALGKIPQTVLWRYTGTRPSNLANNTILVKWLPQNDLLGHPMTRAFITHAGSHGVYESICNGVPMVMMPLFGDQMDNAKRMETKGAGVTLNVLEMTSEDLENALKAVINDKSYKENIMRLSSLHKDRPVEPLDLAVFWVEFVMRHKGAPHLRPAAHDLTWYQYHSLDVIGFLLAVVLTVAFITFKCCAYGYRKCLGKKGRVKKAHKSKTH

[2] = target: T2, UGT1A9 (Homo sapiens, UniProt O60656); assay: Drug metabolism assessed as recombinant human UGT1A9 assessed as O-glucuronidation at 10 to 400 uM incubated for 60 mins by LC-MS/MS analysis
T2 sequence (O60656 whole entry): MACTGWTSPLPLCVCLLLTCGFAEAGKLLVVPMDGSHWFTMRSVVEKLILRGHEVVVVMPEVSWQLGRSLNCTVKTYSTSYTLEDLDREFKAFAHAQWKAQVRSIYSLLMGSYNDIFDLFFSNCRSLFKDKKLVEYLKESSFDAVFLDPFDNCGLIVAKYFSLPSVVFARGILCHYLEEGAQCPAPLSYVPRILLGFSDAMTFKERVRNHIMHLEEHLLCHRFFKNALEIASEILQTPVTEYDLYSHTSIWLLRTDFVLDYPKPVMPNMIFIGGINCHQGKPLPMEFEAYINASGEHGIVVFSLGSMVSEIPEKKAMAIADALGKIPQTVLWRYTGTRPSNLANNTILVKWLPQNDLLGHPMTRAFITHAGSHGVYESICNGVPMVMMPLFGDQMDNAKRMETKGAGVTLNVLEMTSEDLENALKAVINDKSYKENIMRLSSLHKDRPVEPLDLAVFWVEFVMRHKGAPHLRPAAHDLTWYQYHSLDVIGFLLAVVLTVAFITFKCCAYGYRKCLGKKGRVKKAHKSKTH

[3] = target: T3, UDP-glucuronosyltransferase 1A3 (Homo sapiens, UniProt P35503); assay: Drug metabolism assessed as recombinant human UGT1A3 assessed as N-glucuronidation at 100 uM incubated for 60 mins by LC-MS/MS analysis; assay type: ADME; conditions: recombinant enzyme, 1 h
T3 sequence (P35503 whole entry): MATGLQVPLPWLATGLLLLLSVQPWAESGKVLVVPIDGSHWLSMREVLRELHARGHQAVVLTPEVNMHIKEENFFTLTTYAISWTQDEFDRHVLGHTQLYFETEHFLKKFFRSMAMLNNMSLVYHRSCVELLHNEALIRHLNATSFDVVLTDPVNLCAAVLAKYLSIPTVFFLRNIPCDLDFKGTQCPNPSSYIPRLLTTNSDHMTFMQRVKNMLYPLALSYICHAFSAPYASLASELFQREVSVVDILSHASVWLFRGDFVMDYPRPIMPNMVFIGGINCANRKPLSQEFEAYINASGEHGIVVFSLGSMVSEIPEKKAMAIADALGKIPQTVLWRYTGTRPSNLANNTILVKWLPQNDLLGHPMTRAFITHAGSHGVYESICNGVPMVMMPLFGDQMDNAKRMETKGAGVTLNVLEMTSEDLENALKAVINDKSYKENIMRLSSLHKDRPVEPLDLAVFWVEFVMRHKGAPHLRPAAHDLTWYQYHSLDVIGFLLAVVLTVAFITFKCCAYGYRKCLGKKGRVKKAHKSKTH

[4] = target: T4, UDP-glucuronosyltransferase 2B17 (Homo sapiens, UniProt O75795); assay: Drug metabolism assessed as recombinant human UGT2B17 assessed as N-glucuronidation at 100 uM incubated for 60 mins by LC-MS/MS analysis; assay type: ADME; conditions: recombinant enzyme, 1 h
T4 sequence (O75795 whole entry): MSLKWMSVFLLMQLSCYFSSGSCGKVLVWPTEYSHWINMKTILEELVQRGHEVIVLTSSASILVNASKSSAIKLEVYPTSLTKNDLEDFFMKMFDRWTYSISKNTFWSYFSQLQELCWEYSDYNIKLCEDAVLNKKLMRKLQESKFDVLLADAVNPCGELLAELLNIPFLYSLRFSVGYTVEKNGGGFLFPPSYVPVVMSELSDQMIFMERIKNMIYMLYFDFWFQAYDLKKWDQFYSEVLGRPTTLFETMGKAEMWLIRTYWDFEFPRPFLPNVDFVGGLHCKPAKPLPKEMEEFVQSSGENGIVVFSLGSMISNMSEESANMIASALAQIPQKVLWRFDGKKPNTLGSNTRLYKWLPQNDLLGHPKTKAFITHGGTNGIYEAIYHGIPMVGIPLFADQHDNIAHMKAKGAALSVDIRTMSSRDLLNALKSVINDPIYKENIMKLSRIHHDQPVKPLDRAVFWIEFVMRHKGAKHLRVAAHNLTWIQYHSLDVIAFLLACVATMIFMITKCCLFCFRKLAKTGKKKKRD

[5] = target: T5, UGT2B7 (Homo sapiens, UniProt P16662); assay: Drug metabolism assessed as recombinant human UGT2B7 assessed as O-glucuronidation at 10 to 400 uM incubated for 60 mins by LC-MS/MS analysis
T5 sequence (P16662 whole entry): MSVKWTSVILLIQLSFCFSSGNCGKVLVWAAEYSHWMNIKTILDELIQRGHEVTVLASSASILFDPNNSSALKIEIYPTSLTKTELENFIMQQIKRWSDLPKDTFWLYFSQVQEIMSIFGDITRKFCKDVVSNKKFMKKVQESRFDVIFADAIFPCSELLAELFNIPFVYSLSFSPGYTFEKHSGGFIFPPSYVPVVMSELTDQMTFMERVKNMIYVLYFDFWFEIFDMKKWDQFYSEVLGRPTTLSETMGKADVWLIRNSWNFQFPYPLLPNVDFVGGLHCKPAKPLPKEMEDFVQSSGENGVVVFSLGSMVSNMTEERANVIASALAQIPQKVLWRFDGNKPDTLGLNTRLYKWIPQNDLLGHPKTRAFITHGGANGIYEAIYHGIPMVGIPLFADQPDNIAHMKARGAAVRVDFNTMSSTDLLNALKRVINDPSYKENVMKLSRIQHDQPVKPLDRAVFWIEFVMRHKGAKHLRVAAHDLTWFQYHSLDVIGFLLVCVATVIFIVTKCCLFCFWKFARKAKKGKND

Drug metabolism [1]: metabolite_not_detected | Km at 1 h, 400 µM [2]: 174 µM | Drug metabolism [3]: metabolite_not_detected | Drug metabolism [4]: metabolite_not_detected | Km at 1 h, 400 µM [5]: 45 µM
SMILES: O=C(CCCN1CCC(O)(c2ccc(Cl)cc2)CC1)c1ccc(F)cc1 [HALOPERIDOL]
